Read-outs that look alike come from different tables or passages of the source.
Columns and labels:
Trypsin = experiment: Enzyme kinetic / reaction rate study of synthetic substrates with trypsin; assay type: biochemical; conditions: for 1/V: trypsin, pH8, 37° C., Ex = 420 nm, Em = 485 nm; for Km / Vmax: Trypsin, pH 8.0, 200 ng/mL, liberated D compound 7-amino-3-phenylcoumarin
Description: (§1) In use for enzyme analysis, following enzyme cleavage of the bond between the C7 amino group and the A moiety, a detector group is liberated. This detector group is substantially identical to the precursor D moiety (although the amido group at C7 is converted to a primary amino group) and shall be hereinafter referred to as the liberated D compound.
(§2) The liberated D compounds from the above-described inventive synthetic substrates generally fluoresce strongly in the blue to yellow region of the spectrum once irradiated with ultraviolet light, whereas the intact synthetic substrates of the present invention fluoresce more weakly and at shorter wavelengths. The presence of the liberated D compound can be qualitatively or quantitatively determined fluorometrically, or may be utilized in colorimetric assays. Synthetic substrates in accordance with the present invention preferably fluoresce at wavelengths of at least about 460 nm. The FIG. 2 structure, for example, yields a liberated D compound which fluoresces at a wavelength of 472 nm, and the FIG. 3 structure at a wavelength of 505 nm.
(§3) The inventive synthetic substrates may be used in enzyme kinetic studies. Table I, below illustrates kinetic data of several synthetic substrates in accordance with the present invention (where the liberated D compound is 7-amino-3-phenylcoumarin) with 3 different enzymes.
(§4) Table II, below, tabulates the data from three Lineweaver-Burk plots of reaction rate studies utilizing several of the inventive synthetic substrates.

DAP II = experiment: Enzyme kinetic study of synthetic substrates with DAP II; assay type: biochemical; conditions: pH 5.6, rat pituitary homogenate 13.75 μg/mL protein equivalent, liberated D compound 7-amino-3-phenylcoumarin
Description: as §1, §2
The inventive synthetic substrates may be used in enzyme kinetic studies. Table I, below illustrates kinetic data of several synthetic substrates in accordance with the present invention (where the liberated D compound is 7-amino-3-phenylcoumarin) with 3 different enzymes. […]

[1] = Solubility of liberated detector compounds in water; conditions: in water as solvent, analogous to a buffered solution
[2] = Fluorescence properties of liberated detector compounds; assay type: physicochemical; conditions: for Em: fluorescence emission wavelength of detector compound; for Ex: fluorescence excitation wavelength of detector compound; for Rel. Int.: relative fluorescent intensity of detector compound
Description: The presence of the liberated D compound can be qualitatively or quantitatively determined fluorometrically, or may be utilized in colorimetric assays.

[3] = water
Urokinase = experiment: Enzyme kinetic / reaction rate study of synthetic substrates with urokinase; assay type: biochemical; conditions: for 1/V: urokinase, pH8, 37° C., Ex = 410 nm, Em = 475 nm
Description: as §1, §2, §3, §4

[4] = Urokinase, pH 8.0, 2.5 Plough units/ml, liberated D compound 7-amino-3-phenylcoumarin

Structure (SMILES): N=C(N)NCCC[C@H](NC(=O)OCc1ccccc1)C(=O)Nc1ccc2cc(-c3ccccc3)c(=O)oc2c1 [Example VIII, 7-(Z-L-Arginamido)-3-phenylcoumarin]
- 1/V (Trypsin; 1/S = 1.7 (mm)^-1): 1.45 (nmol/ml/min)^-1
- 1/V (Trypsin; 1/S = 3.3 (mm)^-1): 2.25 (nmol/ml/min)^-1
- 1/V (Trypsin; 1/S = 6.7 (mm)^-1): 4.3 (nmol/ml/min)^-1
- 1/V (Trypsin; 1/S = 12.5 (mm)^-1): 7.6 (nmol/ml/min)^-1
- 1/V (Trypsin; 1/S = 16.6 (mm)^-1): 10.2 (nmol/ml/min)^-1
- Km (Trypsin): 574 µM
- Vmax (Trypsin): 1.264 nmol/min

Structure (SMILES): Br.Br.C[C@H](NC(=O)[C@@H](N)CCCCN)C(=O)Nc1ccc2cc(-c3ccccc3)c(=O)oc2c1.O [Example VII, 7-(L-Lysyl-L-alaninamido)-3-phenylcoumarin Dihydrobromide Monohydrate]
- Km (DAP II): 321 µM
- Vmax (DAP II): 0.346 nmol/min

Structure (SMILES): Nc1ccc2cc(-c3ccccc3)c(=O)oc2c1 [7-amino-3-phenyl coumarin, 7-amino-3-phenylcoumarin]
- Sol. [1]: 0.0012 mg/mL
- Em [2]: 472 nm
- Ex [2]: 368 nm
- Rel. Int. [2]: 4.0

Structure (SMILES): N=C(N)NCCC[C@H](NC(=O)c1ccccc1)C(=O)Nc1ccc2cc(-c3ccccc3)c(=O)oc2c1 [IX, 7-(Benzoyl-L-arginamido)-3-phenylcoumarin]
- 1/V (Trypsin; 1/S = 1.1 (mm)^-1): 4.9 (nmol/ml/min)^-1
- 1/V (Trypsin; 1/S = 1.7 (mm)^-1): 6.0 (nmol/ml/min)^-1
- 1/V (Trypsin; 1/S = 3.4 (mm)^-1): 10.0 (nmol/ml/min)^-1
- 1/V (Trypsin; 1/S = 6.7 (mm)^-1): 18.3 (nmol/ml/min)^-1
- 1/V (Trypsin; 1/S = 12.5 (mm)^-1): 35.0 (nmol/ml/min)^-1
- Km (Trypsin): 945 µM
- Vmax (Trypsin): 0.414 nmol/min

Structure (SMILES): Nc1ccc2c(C(F)(F)F)cc(=O)oc2c1 [7-amino-4-trifluoro-methyl coumarin, 7-amino-4-trifluoromethylcoumarin, reference compound]
- Em [2]: 500 nm
- Ex [2]: 390 nm
- Rel. Int. [2]: 1.0
- Sol. [3]: 0.017 mg/mL

Structure (SMILES): N=C(N)NCCC[C@H](NC(=O)CNC(=O)CNC(=O)OCc1ccccc1)C(=O)Nc1ccc2cc(-c3ccccc3)c(=O)oc2c1 [Example X, 7-(Z-Glycylglycyl-L-arginamido)-3-phenylcoumarin]
- 1/V (Urokinase; 1/S = 1 (mm)^-1): 11 (nmol/ml/min)^-1
- 1/V (Urokinase; 1/S = 2 (mm)^-1): 13 (nmol/ml/min)^-1
- 1/V (Urokinase; 1/S = 3.5 (mm)^-1): 17 (nmol/ml/min)^-1
- 1/V (Urokinase; 1/S = 5 (mm)^-1): 22 (nmol/ml/min)^-1
- 1/V (Urokinase; 1/S = 8.25 (mm)^-1): 36 (nmol/ml/min)^-1
- 1/V (Urokinase; 1/S = 11 (mm)^-1): 42 (nmol/ml/min)^-1
- 1/V (Urokinase; 1/S = 12.25 (mm)^-1): 50 (nmol/ml/min)^-1
- 1/V (Urokinase; 1/S = 14.25 (mm)^-1): 51 (nmol/ml/min)^-1
- Km (Urokinase; [4]): 411 µM
- Vmax (Urokinase; [4]): 0.137 nmol/min

Structure (SMILES): N=C(N)NCCC[C@H](NC(=O)OCc1ccc([N+](=O)[O-])cc1)C(=O)Nc1ccc2cc(-c3ccccc3)c(=O)oc2c1 [Example XII, 7-(4-NO2 -Z-L-Arginamido)-3-phenylcoumarin]
- Km (Trypsin): 193 µM
- Vmax (Trypsin): 0.174 nmol/min

Source: US4388233A, “Synthetic substrates for enzyme analysis” (priority 1981, dated 1983)
